Data from ChEMBL document CHEMBL1140954, “Syntheses and cytotoxicities of the analogues of the taxoid brevifoliol” (Eur J Med Chem, 2008).
Values after ≈ are worked out from the molar mass of the structure shown.

Tests used:
[1] = (§1) Cytotoxicity against human Caco-2 cells after 48 hrs by MTT assay; assay type: cell-based; conditions: human, Caco-2 cells
Caco-2 = test: as §1; assay type: cell-based; conditions: Homo sapiens, Caco-2, 48 h
KB = test: Cytotoxicity against human KB cells after 48 hrs by MTT assay; assay type: functional, cell-based
MCF7 = test: Cytotoxicity against human MCF7 cells after 48 hrs by MTT assay; assay type: functional, cell-based; conditions: MCF7, 48 h
HepG2 = test: Cytotoxicity against human HepG2 cells after 48 hrs by MTT assay; assay type: functional, cell-based; conditions: HepG2, 48 h

Row | Compound | IC90 at 48 h [1] [µg/mL] | IC50 (Caco-2) [µg/mL] | IC50 (KB) [µg/mL] | IC90 (KB) [µg/mL] | IC50 (MCF7) [µg/mL] | IC90 (MCF7) [µg/mL] | IC50 (HepG2) [µg/mL] | IC90 (HepG2) [µg/mL]
1 | C=C1[C@@H](OC(=O)[C@H](O)[C@@H](NC(=O)OC(C)(C)C)c2ccccc2)C[C@H](OC(C)=O)[C@]2(C)[C@@H]1C[C@]1(C(C)(C)O)C[C@H](O)C(C)=C1[C@@H](OC(=O)c1ccccc1)[C@@H]2OC(C)=O | 100 (≈ 122 µM) | 100 (≈ 122 µM) | 100 (≈ 122 µM) | 100 (≈ 122 µM) | 33.3 (≈ 40.6 µM) | 55 (≈ 67.1 µM) | 100 (≈ 122 µM) | 100 (≈ 122 µM)
2 | C=C1[C@H]2C[C@]3(C(C)(C)O)C[C@H](O)C(C)=C3[C@@H](OC(=O)c3ccccc3)[C@H](OC(C)=O)[C@]2(C)[C@@H](OC(C)=O)C[C@@H]1O [BREVIFOLIOL] | 1.32 (≈ 2.37 µM) | 0.0025 (≈ 0.00449 µM) | 0.0031 (≈ 0.00557 µM) | 0.6 (≈ 1.08 µM) | 0.86 (≈ 1.54 µM) | 6.16 (≈ 11.1 µM) | 0.055 (≈ 0.0988 µM) | 1.13 (≈ 2.03 µM)
3 | CC(=O)O[C@H]1C(=O)[C@@]2(C)[C@H]([C@H](OC(=O)c3ccccc3)[C@]3(O)C[C@H](OC(=O)[C@H](O)[C@@H](NC(=O)c4ccccc4)c4ccccc4)C(C)=C1C3(C)C)[C@]1(OC(C)=O)CO[C@@H]1C[C@@H]2O [PACLITAXEL] | 0.065 (≈ 0.0761 µM) | – | – | 0.048 (≈ 0.0562 µM) | – | 0.86 (≈ 1.01 µM) | – | 1.13 (≈ 1.32 µM)
4 | C=C1[C@@H](OC(=O)[C@H](O)[C@@H](NC(=O)OC(C)(C)C)c2ccccc2)C[C@H](OC(C)=O)[C@]2(C)[C@@H]1C[C@]1(C(C)(C)O)C[C@H](OC(=O)C(O)C(NC(=O)OC(C)(C)C)c3ccccc3)C(C)=C1[C@@H](OC(=O)c1ccccc1)[C@@H]2OC(C)=O (stereo partly specified) | 100 (≈ 92.3 µM) | 100 (≈ 92.3 µM) | 2.73 (≈ 2.52 µM) | 33.3 (≈ 30.7 µM) | 100 (≈ 92.3 µM) | 100 (≈ 92.3 µM) | 96.6 (≈ 89.2 µM) | 100 (≈ 92.3 µM)
5 | C=C1[C@H]2C[C@]3(C(C)(C)O)C[C@H](OC(=O)[C@H](O)[C@@H](NC(=O)OC(C)(C)C)c4ccccc4)C(C)=C3[C@@H](OC(=O)c3ccccc3)[C@H](OC(C)=O)[C@]2(C)[C@@H](OC(C)=O)C[C@@H]1O | 100 (≈ 122 µM) | 100 (≈ 122 µM) | 100 (≈ 122 µM) | 100 (≈ 122 µM) | 48.3 (≈ 58.9 µM) | 68.3 (≈ 83.3 µM) | 78.3 (≈ 95.5 µM) | 91.6 (≈ 112 µM)
6 | C=C1[C@@H](O)C[C@H](OC(C)=O)[C@@]2(C)[C@@H](OC(C)=O)[C@H](OC(=O)c3ccccc3)C3=C(C)[C@@H](O)C[C@@]3(C(C)(C)O)[C@@H](OC(C)=O)[C@H]12 [TAXCHININ A] | 21 (≈ 34.2 µM) | 6.16 (≈ 10 µM) | 0.316 (≈ 0.514 µM) | 7.5 (≈ 12.2 µM) | 58.3 (≈ 94.8 µM) | 91.6 (≈ 149 µM) | 96.6 (≈ 157 µM) | 100 (≈ 163 µM)
7 | C=C1[C@@H](OC(=O)[C@H](O)[C@@H](NC(=O)OC(C)(C)C)c2ccccc2)C[C@H](OC(C)=O)[C@]2(C)[C@@H]1C[C@]1(C(C)(C)O)CC(=O)C(C)=C1[C@@H](OC(=O)c1ccccc1)[C@@H]2OC(C)=O | 100 (≈ 122 µM) | 100 (≈ 122 µM) | 100 (≈ 122 µM) | 100 (≈ 122 µM) | 8.5 (≈ 10.4 µM) | 43.3 (≈ 53 µM) | 0.065 (≈ 0.0795 µM) | 5.33 (≈ 6.52 µM)
8 | C=C1[C@@H](OC(=O)[C@H](O)[C@@H](NC(=O)OC(C)(C)C)c2ccccc2)C[C@H](OC(C)=O)[C@@]2(C)[C@@H](OC(C)=O)[C@H](OC(=O)c3ccccc3)C3=C(C)C(=O)C[C@@]3(C(C)(C)O)[C@@H](OC(C)=O)[C@H]12 | 100 (≈ 114 µM) | 100 (≈ 114 µM) | 0.105 (≈ 0.12 µM) | 5.33 (≈ 6.08 µM) | 100 (≈ 114 µM) | 100 (≈ 114 µM) | 100 (≈ 114 µM) | 100 (≈ 114 µM)
9 | C=C1[C@@H](O)C[C@H](OC(C)=O)[C@@]2(C)[C@@H](OC(C)=O)[C@H](OC(=O)c3ccccc3)C3=C(C)C(=O)C[C@@]3(C(C)(C)O)[C@@H](OC(C)=O)[C@H]12 [13-OXO-TAXCHININ A] | 100 (≈ 163 µM) | 100 (≈ 163 µM) | 100 (≈ 163 µM) | 100 (≈ 163 µM) | 100 (≈ 163 µM) | 100 (≈ 163 µM) | 96.6 (≈ 158 µM) | 100 (≈ 163 µM)
10 | C=C1[C@H]2C[C@]3(C(C)(C)O)CC(=O)C(C)=C3[C@@H](OC(=O)c3ccccc3)[C@H](OC(C)=O)[C@]2(C)[C@@H](OC(C)=O)C[C@@H]1O | 21 (≈ 37.9 µM) | 0.008 (≈ 0.0144 µM) | 0.0078 (≈ 0.0141 µM) | 1.13 (≈ 2.04 µM) | 5.33 (≈ 9.61 µM) | 22.6 (≈ 40.7 µM) | 100 (≈ 180 µM) | 100 (≈ 180 µM)
